Key:
[1] = molecular target: RAC-gamma serine/threonine-protein kinase (Homo sapiens, UniProt Q9Y243); test: Selectivity interaction (Rxn Biology Kinase assay) EUB0001632a AKT3; conditions: at 10 µM
[2] = molecular target: T1, Serine/threonine-protein kinase LATS2 (Homo sapiens) (UniProt Q9NRM7); test: Selectivity interaction (KinomeScan (DiscoverX)) EUB0000607a LATS2; conditions: at 10 µM
T1 sequence (whole entry): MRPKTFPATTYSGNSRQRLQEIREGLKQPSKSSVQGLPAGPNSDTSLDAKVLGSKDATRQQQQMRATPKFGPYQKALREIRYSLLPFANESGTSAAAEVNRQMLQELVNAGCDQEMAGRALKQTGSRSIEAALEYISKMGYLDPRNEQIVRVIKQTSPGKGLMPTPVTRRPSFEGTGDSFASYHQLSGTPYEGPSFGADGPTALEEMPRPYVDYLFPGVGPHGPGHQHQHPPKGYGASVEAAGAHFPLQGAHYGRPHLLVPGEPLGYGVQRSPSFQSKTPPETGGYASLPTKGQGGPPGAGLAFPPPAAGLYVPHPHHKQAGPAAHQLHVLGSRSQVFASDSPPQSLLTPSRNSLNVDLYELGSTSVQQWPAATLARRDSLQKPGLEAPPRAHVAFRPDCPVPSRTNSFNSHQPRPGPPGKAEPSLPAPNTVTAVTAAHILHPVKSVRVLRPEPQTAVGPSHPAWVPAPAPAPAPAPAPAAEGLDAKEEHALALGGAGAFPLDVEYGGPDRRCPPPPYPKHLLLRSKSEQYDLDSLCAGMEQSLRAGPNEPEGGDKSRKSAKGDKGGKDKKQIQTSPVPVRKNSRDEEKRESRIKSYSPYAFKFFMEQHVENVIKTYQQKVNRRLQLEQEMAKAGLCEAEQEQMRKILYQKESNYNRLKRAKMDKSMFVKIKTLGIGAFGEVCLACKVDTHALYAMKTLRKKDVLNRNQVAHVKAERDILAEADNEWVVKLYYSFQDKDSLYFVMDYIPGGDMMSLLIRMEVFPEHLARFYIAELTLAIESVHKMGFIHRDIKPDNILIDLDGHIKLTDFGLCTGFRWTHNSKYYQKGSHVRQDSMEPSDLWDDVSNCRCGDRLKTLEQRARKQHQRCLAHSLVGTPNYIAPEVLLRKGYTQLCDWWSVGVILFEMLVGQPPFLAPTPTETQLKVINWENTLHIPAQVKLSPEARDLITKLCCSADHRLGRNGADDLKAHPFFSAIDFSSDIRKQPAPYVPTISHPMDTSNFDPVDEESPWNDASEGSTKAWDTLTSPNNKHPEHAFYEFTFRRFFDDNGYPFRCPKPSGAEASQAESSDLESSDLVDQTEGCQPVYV

[3] = molecular target: Ribosomal protein S6 kinase beta-1 (Homo sapiens, UniProt P23443); test: Selectivity interaction (ActivX KiNativ screen (kinase selectivity in THP-1 cell lysates)) EUB0000639a RPS6KB1; format: subcellular; conditions: lysate
Chain of Ribosomal protein S6 kinase beta-1 (P23443 whole entry, looked up): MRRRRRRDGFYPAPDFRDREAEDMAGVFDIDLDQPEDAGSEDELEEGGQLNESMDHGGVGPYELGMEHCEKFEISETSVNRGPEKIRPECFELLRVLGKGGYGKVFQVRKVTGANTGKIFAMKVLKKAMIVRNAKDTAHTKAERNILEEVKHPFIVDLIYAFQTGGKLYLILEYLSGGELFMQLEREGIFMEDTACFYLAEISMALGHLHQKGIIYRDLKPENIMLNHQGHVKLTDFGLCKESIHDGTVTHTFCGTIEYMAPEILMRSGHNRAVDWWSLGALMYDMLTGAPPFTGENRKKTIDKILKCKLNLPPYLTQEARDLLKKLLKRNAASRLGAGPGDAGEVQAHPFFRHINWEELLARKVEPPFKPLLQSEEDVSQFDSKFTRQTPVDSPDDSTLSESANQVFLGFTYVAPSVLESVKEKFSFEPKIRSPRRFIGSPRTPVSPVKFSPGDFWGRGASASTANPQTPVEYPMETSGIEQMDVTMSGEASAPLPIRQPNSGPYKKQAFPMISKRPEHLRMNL

[4] = molecular target: T2, cGMP-dependent protein kinase 1 (Homo sapiens) (UniProt Q13976); test: Selectivity interaction (Kinase panel (Invitrogen)) EUB0000639a PRKG1; conditions: at 200 nM
T2 sequence (whole entry): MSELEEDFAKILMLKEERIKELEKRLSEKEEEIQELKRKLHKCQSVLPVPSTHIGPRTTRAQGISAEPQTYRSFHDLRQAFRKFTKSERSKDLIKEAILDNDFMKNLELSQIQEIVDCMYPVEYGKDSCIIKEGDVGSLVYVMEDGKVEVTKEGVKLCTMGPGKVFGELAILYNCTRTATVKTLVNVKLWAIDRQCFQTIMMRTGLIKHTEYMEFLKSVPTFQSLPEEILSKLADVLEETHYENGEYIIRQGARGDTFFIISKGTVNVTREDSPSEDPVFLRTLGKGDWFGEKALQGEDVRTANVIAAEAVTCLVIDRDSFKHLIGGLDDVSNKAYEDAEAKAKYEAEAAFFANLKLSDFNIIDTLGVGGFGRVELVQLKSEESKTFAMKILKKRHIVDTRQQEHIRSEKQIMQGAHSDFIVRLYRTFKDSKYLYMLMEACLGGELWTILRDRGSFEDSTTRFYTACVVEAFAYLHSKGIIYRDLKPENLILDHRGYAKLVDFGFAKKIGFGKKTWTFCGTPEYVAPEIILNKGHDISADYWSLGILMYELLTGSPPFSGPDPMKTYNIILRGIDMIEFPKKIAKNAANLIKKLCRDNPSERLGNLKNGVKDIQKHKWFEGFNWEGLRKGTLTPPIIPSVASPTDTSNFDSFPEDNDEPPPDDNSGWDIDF

[5] = test system: Mast/stem cell growth factor receptor Kit (Homo sapiens), P10721 [A829P]; test: (§1) Selectivity interaction (KinomeScan (DiscoverX)) EUB0000695a KIT; conditions: at 100 nM
Chain of Mast/stem cell growth factor receptor Kit (Homo sapiens), P10721 [A829P] (P10721 whole entry A829P): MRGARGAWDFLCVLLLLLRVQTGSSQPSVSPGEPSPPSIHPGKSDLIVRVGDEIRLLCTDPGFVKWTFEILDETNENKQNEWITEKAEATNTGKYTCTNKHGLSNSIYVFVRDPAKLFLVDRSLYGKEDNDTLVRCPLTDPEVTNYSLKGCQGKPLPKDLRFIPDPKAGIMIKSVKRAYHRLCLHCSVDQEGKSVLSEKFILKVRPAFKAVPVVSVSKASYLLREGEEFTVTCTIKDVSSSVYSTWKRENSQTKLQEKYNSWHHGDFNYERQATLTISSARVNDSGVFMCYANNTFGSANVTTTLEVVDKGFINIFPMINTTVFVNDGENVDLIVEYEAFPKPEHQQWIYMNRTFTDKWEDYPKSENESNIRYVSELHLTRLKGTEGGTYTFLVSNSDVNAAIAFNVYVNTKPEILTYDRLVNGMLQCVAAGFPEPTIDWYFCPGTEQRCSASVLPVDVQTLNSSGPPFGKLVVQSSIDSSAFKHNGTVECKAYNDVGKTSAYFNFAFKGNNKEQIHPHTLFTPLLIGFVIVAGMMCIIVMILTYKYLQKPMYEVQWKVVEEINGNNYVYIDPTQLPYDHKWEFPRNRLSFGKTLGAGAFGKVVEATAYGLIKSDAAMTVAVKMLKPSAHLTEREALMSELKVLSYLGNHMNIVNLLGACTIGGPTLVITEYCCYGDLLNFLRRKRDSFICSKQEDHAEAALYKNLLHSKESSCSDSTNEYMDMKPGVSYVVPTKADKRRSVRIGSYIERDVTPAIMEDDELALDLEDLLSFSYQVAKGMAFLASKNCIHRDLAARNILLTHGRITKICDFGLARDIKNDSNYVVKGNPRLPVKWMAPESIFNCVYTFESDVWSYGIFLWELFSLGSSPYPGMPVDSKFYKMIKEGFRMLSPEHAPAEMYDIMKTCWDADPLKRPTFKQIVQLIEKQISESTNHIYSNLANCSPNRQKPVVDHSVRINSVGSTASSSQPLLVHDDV

[6] = test system: Mast/stem cell growth factor receptor Kit (Homo sapiens), P10721 [V559D]; test: as §1; conditions: at 100 nM
Chain of Mast/stem cell growth factor receptor Kit (Homo sapiens), P10721 [V559D] (P10721 whole entry V559D): as the sequence (P10721 whole entry A829P) above, with V559D, P829A counted along it

[7] = test system: Mast/stem cell growth factor receptor Kit (Homo sapiens), P10721 [V559D,T670I]; test: as §1; conditions: at 100 nM
Chain of Mast/stem cell growth factor receptor Kit (Homo sapiens), P10721 [V559D,T670I] (P10721 whole entry V559D/T670I): as the sequence (P10721 whole entry A829P) above, with V559D, T670I, P829A counted along it

[8] = test system: Mast/stem cell growth factor receptor Kit (Homo sapiens), P10721 [D816H]; test: as §1; conditions: at 100 nM
Chain of Mast/stem cell growth factor receptor Kit (Homo sapiens), P10721 [D816H] (P10721 whole entry D816H): as the sequence (P10721 whole entry A829P) above, with D816H, P829A counted along it

[9] = test system: Mast/stem cell growth factor receptor Kit (Homo sapiens), P10721 [D816V]; test: as §1; conditions: at 100 nM
Chain of Mast/stem cell growth factor receptor Kit (Homo sapiens), P10721 [D816V] (P10721 whole entry D816V): as the sequence (P10721 whole entry A829P) above, with D816V, P829A counted along it

[10] = test system: Mast/stem cell growth factor receptor Kit (Homo sapiens), P10721 [L576P]; test: as §1; conditions: at 100 nM
Chain of Mast/stem cell growth factor receptor Kit (Homo sapiens), P10721 [L576P] (P10721 whole entry L576P): as the sequence (P10721 whole entry A829P) above, with L576P, P829A counted along it

[11] = molecular target: Mast/stem cell growth factor receptor Kit (Homo sapiens, UniProt P10721); test: as §1; conditions: at 100 nM
Chain of Mast/stem cell growth factor receptor Kit (P10721 whole entry): as the sequence (P10721 whole entry A829P) above, with P829A counted along it

[12] = test system: Mast/stem cell growth factor receptor Kit (Homo sapiens), P10721 [V559D,V654A]; test: as §1; conditions: at 100 nM
Chain of Mast/stem cell growth factor receptor Kit (Homo sapiens), P10721 [V559D,V654A] (P10721 whole entry V559D/V654A): as the sequence (P10721 whole entry A829P) above, with V559D, V654A, P829A counted along it

[13] = molecular target: Calcium/calmodulin-dependent protein kinase kinase 2 (Homo sapiens) (UniProt Q96RR4); test: Selectivity interaction (KinomeScan (DiscoverX)) EUB0000092b CAMKK2; conditions: at 10 µM
Chain of Calcium/calmodulin-dependent protein kinase kinase 2 (Homo sapiens) (Q96RR4 2-588 limits assumed): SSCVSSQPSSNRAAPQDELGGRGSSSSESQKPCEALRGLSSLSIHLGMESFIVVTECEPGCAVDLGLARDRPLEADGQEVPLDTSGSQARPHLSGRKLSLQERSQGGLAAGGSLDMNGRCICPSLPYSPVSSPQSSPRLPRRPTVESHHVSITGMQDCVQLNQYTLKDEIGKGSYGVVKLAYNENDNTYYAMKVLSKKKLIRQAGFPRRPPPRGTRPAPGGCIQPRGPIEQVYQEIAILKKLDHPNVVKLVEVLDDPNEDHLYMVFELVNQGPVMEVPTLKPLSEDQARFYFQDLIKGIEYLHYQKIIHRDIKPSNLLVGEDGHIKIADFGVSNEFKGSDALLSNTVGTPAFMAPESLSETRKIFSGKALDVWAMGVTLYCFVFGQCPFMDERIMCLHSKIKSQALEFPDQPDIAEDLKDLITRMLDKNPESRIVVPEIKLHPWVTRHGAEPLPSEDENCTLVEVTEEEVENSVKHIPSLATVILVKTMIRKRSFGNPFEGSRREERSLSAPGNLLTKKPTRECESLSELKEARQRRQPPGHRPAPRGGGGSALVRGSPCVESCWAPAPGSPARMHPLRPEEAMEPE

[14] = molecular target: 5'-AMP-activated protein kinase catalytic subunit alpha-2 (Homo sapiens) (UniProt P54646); test: Selectivity interaction (KinomeScan (DiscoverX)) EUB0001619a PRKAA2; conditions: at 1 µM
Chain of 5'-AMP-activated protein kinase catalytic subunit alpha-2 (Homo sapiens) (P54646 whole entry, looked up): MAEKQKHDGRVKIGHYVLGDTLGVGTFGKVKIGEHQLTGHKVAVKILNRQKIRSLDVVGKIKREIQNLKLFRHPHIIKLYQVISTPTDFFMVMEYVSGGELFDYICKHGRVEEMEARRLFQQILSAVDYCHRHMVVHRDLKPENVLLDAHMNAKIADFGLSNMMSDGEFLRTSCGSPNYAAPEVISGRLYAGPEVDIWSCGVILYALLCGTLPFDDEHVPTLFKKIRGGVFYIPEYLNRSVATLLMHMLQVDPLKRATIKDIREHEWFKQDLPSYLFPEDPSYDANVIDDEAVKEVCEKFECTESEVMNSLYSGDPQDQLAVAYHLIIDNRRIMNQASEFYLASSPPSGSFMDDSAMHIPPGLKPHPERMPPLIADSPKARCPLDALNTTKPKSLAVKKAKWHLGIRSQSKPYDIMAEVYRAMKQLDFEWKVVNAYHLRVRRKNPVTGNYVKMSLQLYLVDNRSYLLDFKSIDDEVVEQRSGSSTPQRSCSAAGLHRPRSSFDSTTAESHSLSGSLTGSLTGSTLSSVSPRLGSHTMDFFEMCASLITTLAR

Chain of RAC-gamma serine/threonine-protein kinase (Q9Y243 whole entry): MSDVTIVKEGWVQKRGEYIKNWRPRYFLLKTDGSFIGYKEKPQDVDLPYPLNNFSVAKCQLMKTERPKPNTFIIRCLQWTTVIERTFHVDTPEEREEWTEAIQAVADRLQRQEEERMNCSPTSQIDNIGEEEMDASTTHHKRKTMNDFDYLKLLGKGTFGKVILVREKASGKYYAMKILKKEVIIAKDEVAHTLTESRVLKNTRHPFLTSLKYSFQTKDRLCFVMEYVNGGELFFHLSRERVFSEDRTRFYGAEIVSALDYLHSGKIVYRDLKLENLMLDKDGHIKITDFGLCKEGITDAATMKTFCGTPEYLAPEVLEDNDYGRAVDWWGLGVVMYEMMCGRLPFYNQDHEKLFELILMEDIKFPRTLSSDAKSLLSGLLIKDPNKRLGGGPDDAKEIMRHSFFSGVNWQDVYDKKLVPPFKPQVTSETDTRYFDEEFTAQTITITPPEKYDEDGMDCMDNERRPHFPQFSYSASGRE

In the case of `Cn1cc(-n2cnc3c(NCc4nc5cc(Cl)c(Cl)cc5[nH]4)nc(N4CCOCC4)nc32)cn1`, the % of inhibition [1] is reported as 6.75%.
Compound `CNC(=O)Nc1ccc(-c2nc(N3CC4CCC(C3)O4)c3cnn(C4CCC5(CC4)OCCO5)c3n2)cc1` has a % of control [2] of 76%.
With `CC[C@@H]1[C@H](F)C(=O)N[C@@H]1COc1nccc2cc(C(N)=O)c(OC)cc12` [ZIMLOVISERTIB] the % of inhibition ([3]; at 0.01 µM) was 17.1%, the % of inhibition ([3]; at 0.04 µM) was -0.8% and the % of inhibition ([3]; at 0.2 µM) was -21.6%. The % of inhibition ([3]; at 1 µM) was -2.2%, the % of inhibition ([3]; at 5 µM) was -3% and the % of inhibition [4] was 8.62%.
With `Cc1cc(F)c(C(=O)Nc2cccc(-c3nncn3C(C)C)n2)cc1-n1cnc(C2CC2)c1` the % of control [5] was 82%, the % of control [6] was 92% and the % of control [7] was 100%. For the same compound, the % of control [8] was 79%, the % of control [9] was 84% and the % of control [10] was 94%. It also gave a % of control [11] of 89% and a % of control [12] of 100%.
Compound `CCC(=O)N1CCN(c2ccc(-n3c(=O)ccc4cnc5ccc(-c6cnc7ccccc7c6)cc5c43)cc2C(F)(F)F)CC1` has a % of control [13] of 85%.
`N#Cc1cccc(-c2c[nH]c3ncnc(N4CCOCC4)c23)c1` gave a % of control [14] of 22%.

— ChEMBL document CHEMBL5465560, “Selectivity Literature for EUbOPEN Chemogenomic Library” (2024)
